Patent US20230131899A1, “INHIBITORS OF MICROBIALLY INDUCED AMYLOID” (Axial Therapeutics, Inc., priority 2020, published 2023)
Read-outs that look alike come from different tables or passages of the source.

Key:
E. coli CsgA = target: T1, E. coli CsgA (Escherichia coli, UniProt P28307); assay: In vitro ThioflavinT assay of CsgA aggregation (CsgA ThT Assay); format: biochemical; conditions: for remaining activity at 25 µM: compound 25 μM; for remaining activity at 100 µM: compound 100 μM
T1 construct: made in house; host or cells: E. coli NEB 3016 slyD::kan, pET11d
In short: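 Purified C-terminal His-tagged CsgA, monomerised by desalting and 30-kDa filtration, at 2-20 μM with 20-40 μM ThT in 50 mM potassium phosphate pH 7.3, 1% DMSO, compounds 3.125-200 uM; room temperature, fluorescence (ex 438/em 495 nm) read every 15 min. Background-subtracted signal expressed as percent inhibition versus vehicle at 6-6.5 or 8-9 h, or as percent control AUC.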

[1] = tested on: CsgA gene expression (csgBAC promoter-GFP reporter) in E. coli UTI89; assay: In vitro live cell fluorescent reporter assay of CsgA transcription (Reporter Assay); format: cell-based; conditions: Escherichia coli
In short: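 Chromosomal single-copy csgBAC promoter–GFP reporter in E. coli UTI89, started at OD600 0.003 in YESCA broth with compound (0.14–100 μM, 1% DMSO), 20 h at 27 °C. GFP (ex 485/em 525 nm) background-subtracted and normalized to vehicle; IC50 and X[50] from curve fits. OD600 tracked growth effects.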

[2] = read-out: CsgA ThT Assay (10 μM CsgA) % Control AUC at 1005 minutes, 25 μM (activity range), CsgA 10 μM, black plates, 1005 minutes, class symbol
[3] = read-out: CsgA ThT Assay (10 μM CsgA) % Control AUC at 1005 minutes, 25 μM, mean AUC as % of DMSO control, CsgA 10 μM, black plates, 1005 minutes
[4] = read-out: CsgA ThT Assay (10 μM CsgA) % Control AUC at 1005 minutes, 100 μM (activity range), CsgA 10 μM, black plates, 1005 minutes, class symbol
[5] = read-out: CsgA ThT Assay (10 μM CsgA) % Control AUC at 1005 minutes, 100 μM, mean AUC as % of DMSO control, CsgA 10 μM, black plates, 1005 minutes
[6] = read-out: Reporter Assay Abs IC50 (activity range), median Abs IC50 in the CsgA reporter assay, class symbol
[7] = read-out: Reporter Assay Abs IC50 (μM), median Abs IC50 in the CsgA reporter assay, N/A = maximum expression reduction is <50% of control
[8] = read-out: CsgA ThT Assay (2 μM CsgA) % Control Bmax 25 μM, activity range, class symbol, CsgA 2 μM, white plates
[9] = read-out: CsgA ThT Assay (2 μM CsgA) % Control Bmax 25 μM, mean Bmax as percentage of DMSO control, CsgA 2 μM, white plates
[10] = read-out: CsgA ThT Assay (2 μM CsgA) % Control Bmax 100 μM, activity range, class symbol, CsgA 2 μM, white plates
[11] = read-out: CsgA ThT Assay (2 μM CsgA) % Control Bmax 100 μM, mean Bmax as percentage of DMSO control, CsgA 2 μM, white plates
[12] = read-out: Reporter Assay Abs IC50, activity range, class symbol

T1 sequence (P28307 23-151): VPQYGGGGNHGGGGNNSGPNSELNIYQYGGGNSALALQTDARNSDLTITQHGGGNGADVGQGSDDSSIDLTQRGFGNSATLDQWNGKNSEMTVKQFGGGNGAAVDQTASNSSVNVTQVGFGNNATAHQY

Row | SMILES | remaining activity at 25 µM (E. coli CsgA; [2]) [%] | remaining activity at 25 µM (E. coli CsgA; [3]) [%] | remaining activity at 100 µM (E. coli CsgA; [4]) [%] | remaining activity at 100 µM (E. coli CsgA; [5]) [%] | IC50 [1, 6] [µM] | IC50 [1, 7] [µM] | remaining activity at 25 µM (E. coli CsgA; [8]) [%] | remaining activity at 25 µM (E. coli CsgA; [9]) [%] | remaining activity at 100 µM (E. coli CsgA; [10]) [%] | remaining activity at 100 µM (E. coli CsgA; [11]) [%] | IC50 [1, 12] [µM]
1 | CCCN1CC(C(=O)O)n2c(c(-c3cccc(C(F)(F)F)c3)c(Cc3cccc4ccccc34)c(OCCc3ccccc3)c2=O)S1(=O)=O (stereo not shown) [Compound 001, 8-(naphthalen-1-ylmethyl)-6-oxo-7-phenethoxy-2-propyl-9-(3-(trifluoromethyl)phenyl)-3,4-dihydro-2H,6H-pyrido[1,2-e][1,2,5]thiadiazine-4-carboxylic acid 1,1-dioxide] | 31 to 60 | 36 | 31 to 60 | 35 | 1.3 to 4.5 | 1.5 |  |  |  |  | 
2 | O=C(O)C1CN(CC2CCCC2)S(=O)(=O)c2c(-c3cccc(C(F)(F)F)c3)c(Cc3cccc4ccccc34)c(NC3CCCC3)c(=O)n21 (stereo not shown) [Compound 002, 7-(cyclopentylamino)-2-(cyclopentylmethyl)-8-(naphthalen-1-ylmethyl)-6-oxo-9-(3-(trifluoromethyl)phenyl)-3,4-dihydro-2H,6H-pyrido[1,2-e][1,2,5]thiadiazine-4-carboxylic acid 1,1-dioxide] |  |  |  |  |  | 4.1 | 31 to 60 | 60 | > 60 | 137 | 1.3 to 4.5
3 | CCCN1CC(C(=O)O)n2c(cc(Cc3cccc4ccccc34)c(NC3CCCC3)c2=O)S1(=O)=O (stereo not shown) [Compound 006, 7-(cyclopentylamino)-8-(naphthalen-1-ylmethyl)-6-oxo-2-propyl-3,4-dihydro-2H,6H-pyrido[1,2-e][1,2,5]thiadiazine-4-carboxylic acid 1,1-dioxide] |  |  |  |  |  | 70 | > 60 | 66 | 31 to 60 | 34 | > 10
4 | COC(=O)C1CSc2c(-c3cccc(C(F)(F)F)c3)c(Cc3cccc4ccccc34)cc(=O)n21 (stereo not shown) [Compound 012, Methyl 7-(naphthalen-1-ylmethyl)-5-oxo-8-(3-(trifluoromethyl)phenyl)-2,3-dihydro-5H-thiazolo[3,2-a]pyridine-3-carboxylate] | > 60 | 108 | > 60 | 107 | 1.3 to 4.5 | 3.3 |  |  |  |  | 
5 | Cn1c(=O)c2c(ncn2CCCCCCN2CC(C(=O)O)n3c(c(-c4cccc(C(F)(F)F)c4)c(Cc4cccc5ccccc45)cc3=O)S2(=O)=O)n(C)c1=O (stereo not shown) [Compound 035, 2-(6-(1,3-dimethyl-2,6-dioxo-1,2,3,6-tetrahydro-7H-purin-7-yl)hexyl)-8-(naphthalen-1-ylmethyl)-6-oxo-9-(3-(trifluoromethyl)phenyl)-3,4-dihydro-2H,6H-pyrido[1,2-e][1,2,5]thiadiazine-4-carboxylic acid 1,1-dioxide] | > 60 | 65 |  |  | 1.3 to 4.5 | 1.5 |  |  |  |  | 
6 | CNC(=O)CN1CC(C(=O)O)n2c(c(-c3cccc(C(F)(F)F)c3)c(Cc3cccc4ccccc34)cc2=O)S1(=O)=O (stereo not shown) [Compound 049, 2-(2-(methylamino)-2-oxoethyl)-8-(naphthalen-1-ylmethyl)-6-oxo-9-(3-(trifluoromethyl)phenyl)-3,4-dihydro-2H,6H-pyrido[1,2-e][1,2,5]thiadiazine-4-carboxylic acid 1,1-dioxide] | > 60 | 74 | 31 to 60 | 35 | 4.6 to 10 | 8.9 |  |  |  |  | 
7 | CCCCCN1CC(C(=O)O)n2c(c(-c3cccc(C(F)(F)F)c3)c(Cc3ccc(N)c4ccccc34)cc2=O)S1(=O)=O (stereo not shown) [Compound 052] | 31 to 60 | 42 | 11 to 31 | 20 | < 1.3 | 1.1 |  |  |  |  | 
8 | O=C(c1nc(=O)n2c(c1-c1cccc(C(F)(F)F)c1)SCC2C(=O)O)c1cccc2ccccc12 (stereo not shown) [Compound 055, 7-(1-naphthoyl)-5-oxo-8-(3-(trifluoromethyl)phenyl)-2,3-dihydro-5H-thiazolo[3,2-c]pyrimidine-3-carboxylic acid] | > 60 | 73 | 11 to 31 | 17 | > 10 | 11 |  |  |  |  | 
9 | CN1CC(C(=O)O)n2c(c(-c3cccc(C(F)(F)F)c3)c(Cc3cccc4ccccc34)c(Br)c2=O)S1(=O)=O (stereo not shown) [Compound 058, 7-bromo-2-methyl-8-(naphthalen-1-ylmethyl)-6-oxo-9-(3-(trifluoromethyl)phenyl)-3,4-dihydro-2H,6H-pyrido[1,2-e][1,2,5]thiadiazine-4-carboxylic acid 1,1-dioxide] | 31 to 60 | 47 | 11 to 31 | 22 | > 10 | 19.8 |  |  |  |  | 
10 | O=C(O)c1c(Cc2ccccc2)sc2c(-c3cccc(C(F)(F)F)c3)c(Cc3cccc4ccccc34)cc(=O)n12 [Compound 060, 2-benzyl-7-(naphthalen-1-ylmethyl)-5-oxo-8-(3-(trifluoromethyl)phenyl)-5H-thiazolo[3,2-a]pyridine-3-carboxylic acid] | > 60 | 91 | > 60 | 98 | 1.3 to 4.5 | 1.4 |  |  |  |  | 
11 | CCCc1sc2c(-c3cccc(C(F)(F)F)c3)c(Cc3cccc4ccccc34)cc(=O)n2c1C(=O)O [Compound 061, 7-(naphthalen-1-ylmethyl)-5-oxo-2-propyl-8-(3-(trifluoromethyl)phenyl)-5H-thiazolo[3,2-a]pyridine-3-carboxylic acid] | 31 to 60 | 44 | 31 to 60 | 45 | 1.3 to 4.5 | 2.1 |  |  |  |  | 
12 | O=C(O)C1CSc2c(-c3cccc(C(F)(F)F)c3)c(C(F)(F)c3cccc4ccccc34)nc(=O)n21 (stereo not shown) [Compound 063, 7-(difluoro(naphthalen-1-yl)methyl)-5-oxo-8-(3-(trifluoromethyl)phenyl)-2,3-dihydro-5H-thiazolo[3,2-c]pyrimidine-3-carboxylic acid] | > 60 | 61 | 11 to 31 | 21 | > 10 | 11.2 |  |  |  |  | 
13 | Nc1c(Cc2cccc3ccccc23)c(-c2cccc(C(F)(F)F)c2)c2n(c1=O)C(C(=O)O)CO2 (stereo not shown) [Compound 069, 6-amino-7-(naphthalen-1-ylmethyl)-5-oxo-8-(3-(trifluoromethyl)phenyl)-2,3-dihydro-5H-oxazolo[3,2-a]pyridine-3-carboxylic acid] | 31 to 60 | 58 | 11 to 31 | 14 | 4.6 to 10 | 5.7 |  |  |  |  | 
14 | CN1CC(C(=O)O)n2c(c(-c3cccc(C(F)(F)F)c3)c(Cc3cccc4ccccc34)c(NC3CCOCC3)c2=O)S1(=O)=O (stereo not shown) [Compound 072, 2-methyl-8-(naphthalen-1-ylmethyl)-6-oxo-7-((tetrahydro-2H-pyran-4-yl)amino)-9-(3-(trifluoromethyl)phenyl)-3,4-dihydro-2H,6H-pyrido[1,2-e][1,2,5]thiadiazine-4-carboxylic acid 1,1-dioxide] | 11 to 31 | 24 | < 10 | 10 | 4.6 to 10 | 6.9 |  |  |  |  | 
15 | CN1CC(C(=O)O)n2c(c(-c3cccc(C(F)(F)F)c3)c(Cc3cccc4ccccc34)c(CO)c2=O)S1(=O)=O (stereo not shown) [Compound 077, 7-(hydroxymethyl)-2-methyl-8-(naphthalen-1-ylmethyl)-6-oxo-9-(3-(trifluoromethyl)phenyl)-3,4-dihydro-2H,6H-pyrido[1,2-e][1,2,5]thiadiazine-4-carboxylic acid 1,1-dioxide] | > 60 | 97 | > 60 | 87 | > 10 | 51.6 |  |  |  |  | 
